A word on the Ki: it is the equilibrium dissociation constant of an inhibitor or competing ligand from its target. In general, IC50 refers to the concentration that gives 50% inhibition. Read a low IC50 as inhibition by little substance.

Results on 22 compounds are retold here after ChEMBL document CHEMBL1212898 (J Med Chem, 2010).

Test [1] addresses Sodium-dependent serotonin transporter (Rattus norvegicus, UniProt P31652). Kind of test: Displacement of [3H]citalopram from SERT in rat brain stem by scintillation counting. The format is tissue-based. In general terms: Loss of bound radioactivity is the signal in a displacement assay; it reports binding, not function.
The target of test [2] is Transporter (Rattus norvegicus, UniProt Q63380). Briefly: Displacement of [3H]nisoxetine from NET in rat frontal cortex by scintillation counting. The format is tissue-based.
Test [3] addresses Sodium-dependent dopamine transporter (Rattus norvegicus, UniProt P23977). Kind of test: Displacement of [3H]WIN-35428 from DAT in rat caudate-putamen by scintillation counting. The format is tissue-based.
For test [4], the species on record is Rattus norvegicus. Briefly: Selectivity ratio of Ki for NET in rat brain frontal cortex to Ki for SERT in rat brain stem. It counts as tissue-based.
The species entered for test [5] is Rattus norvegicus. Briefly: Selectivity ratio of Ki for DAT in rat caudate-putamen to Ki for SERT in rat brain stem. The format is tissue-based.
Test [6] can be described thus: Displacement of [3H]leucine from Leucine transporter.

Sequence of Sodium-dependent serotonin transporter (P31652 whole entry): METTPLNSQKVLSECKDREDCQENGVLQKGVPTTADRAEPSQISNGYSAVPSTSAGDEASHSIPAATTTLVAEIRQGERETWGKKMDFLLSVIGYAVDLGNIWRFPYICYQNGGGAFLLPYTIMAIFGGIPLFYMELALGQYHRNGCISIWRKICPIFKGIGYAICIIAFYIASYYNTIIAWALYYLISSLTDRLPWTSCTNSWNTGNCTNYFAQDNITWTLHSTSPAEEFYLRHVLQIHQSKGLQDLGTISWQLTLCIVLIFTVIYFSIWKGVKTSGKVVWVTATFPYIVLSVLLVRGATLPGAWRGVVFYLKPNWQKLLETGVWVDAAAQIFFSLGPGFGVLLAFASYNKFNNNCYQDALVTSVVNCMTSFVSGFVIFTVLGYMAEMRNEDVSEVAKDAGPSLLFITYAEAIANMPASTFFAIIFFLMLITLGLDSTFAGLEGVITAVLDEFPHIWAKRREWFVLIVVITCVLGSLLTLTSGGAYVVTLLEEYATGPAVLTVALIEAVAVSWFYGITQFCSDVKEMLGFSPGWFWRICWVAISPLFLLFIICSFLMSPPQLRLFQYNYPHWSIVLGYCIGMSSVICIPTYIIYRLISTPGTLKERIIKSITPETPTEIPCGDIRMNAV
Sequence of Transporter (Q63380 whole entry): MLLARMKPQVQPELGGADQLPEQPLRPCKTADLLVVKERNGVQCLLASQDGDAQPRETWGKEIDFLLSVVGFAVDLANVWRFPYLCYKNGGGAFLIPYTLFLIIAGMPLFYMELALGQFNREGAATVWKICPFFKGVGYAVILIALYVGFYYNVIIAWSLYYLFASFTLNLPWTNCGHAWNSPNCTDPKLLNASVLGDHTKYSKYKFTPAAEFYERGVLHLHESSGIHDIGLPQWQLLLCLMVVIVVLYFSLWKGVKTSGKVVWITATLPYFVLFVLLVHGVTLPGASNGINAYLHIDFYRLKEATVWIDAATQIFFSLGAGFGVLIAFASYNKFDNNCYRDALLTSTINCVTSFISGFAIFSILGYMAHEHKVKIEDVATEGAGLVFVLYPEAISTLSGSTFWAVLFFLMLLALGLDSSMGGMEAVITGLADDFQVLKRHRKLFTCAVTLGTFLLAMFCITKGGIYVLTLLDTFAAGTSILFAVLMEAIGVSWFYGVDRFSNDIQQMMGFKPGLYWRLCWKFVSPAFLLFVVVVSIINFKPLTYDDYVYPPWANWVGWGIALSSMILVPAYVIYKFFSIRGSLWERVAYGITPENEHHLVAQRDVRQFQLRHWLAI
Sequence of Sodium-dependent dopamine transporter (P23977 whole entry): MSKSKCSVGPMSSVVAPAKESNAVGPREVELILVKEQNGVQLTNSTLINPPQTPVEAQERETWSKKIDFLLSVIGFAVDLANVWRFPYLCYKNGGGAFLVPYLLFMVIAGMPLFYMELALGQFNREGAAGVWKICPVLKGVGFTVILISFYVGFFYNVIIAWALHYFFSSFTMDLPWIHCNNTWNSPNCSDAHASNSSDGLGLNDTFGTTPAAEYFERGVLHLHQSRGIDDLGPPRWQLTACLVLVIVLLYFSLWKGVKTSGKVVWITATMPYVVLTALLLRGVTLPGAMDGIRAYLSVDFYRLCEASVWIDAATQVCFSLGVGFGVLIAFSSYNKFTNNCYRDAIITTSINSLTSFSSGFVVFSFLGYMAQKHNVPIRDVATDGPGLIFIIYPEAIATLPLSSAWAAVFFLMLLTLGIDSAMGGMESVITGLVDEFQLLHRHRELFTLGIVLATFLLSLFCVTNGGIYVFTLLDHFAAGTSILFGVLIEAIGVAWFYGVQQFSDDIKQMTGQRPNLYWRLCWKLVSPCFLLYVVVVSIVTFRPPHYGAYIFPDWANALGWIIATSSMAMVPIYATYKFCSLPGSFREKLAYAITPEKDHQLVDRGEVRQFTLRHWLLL

For the compound `CN(C)CCCC1(c2ccc(F)cc2)OCc2cc(/C=C/c3ccccc3)ccc21` (racemic), the figures for the Ki in test [1], in test [2] and in test [3] were 0.00932 µM, 11.4 µM and 0.836 µM, respectively. Also, the Ratio Ki in test [4] stood at 1220; in test [5] it was 90.

As for `CN(C)CCCC1(c2ccc(F)cc2)OCc2cc(CCc3ccccc3)ccc21` (configuration not stated), the results for the Ki in test [1] and in test [2] were 0.0381 µM and 4.63 µM, respectively.

Consider `COc1cccc(-c2ccc3c(c2)COC3(CCCN(C)C)c2ccc(F)cc2)c1` (configuration not stated), for which the Ki in test [1] is 0.0092 µM; in test [2], 2.61 µM.

On to `CN(C)CCCC1(c2ccc(F)cc2)OCc2cc(/C=C/c3ccc(Cl)cc3)ccc21` (configuration not stated), for which the Ki amounted to 0.0336 µM in test [1], 25.1 µM in test [2] and 2 µM in test [3]. The figures for the Ratio Ki in test [4] and in test [5] were 747 and 60, respectively.

With `CN(C)CCCC1(c2ccc(F)cc2)OCc2c(Br)cccc21` (configuration not stated), the values for the Ki in test [1], in test [2] and in test [3] were 0.00387 µM, 6.17 µM and 0.216 µM, respectively. Further, the Ratio Ki was determined as 1590 in test [4] and 56 in test [5].

Regarding `CN(C)CCCC1(c2ccc(F)cc2)OCc2c(/C=C/c3ccccc3)cccc21` (configuration not stated), the figures for the Ki in test [1], in test [2] and in test [3] were 0.0464 µM, 11.9 µM and 1.14 µM, respectively. For the same compound, the Ratio Ki was 256 in test [4] and 25 in test [5].

As for `CN(C)CCCC1(c2ccc(F)cc2)OCc2cc(-c3ccc(Cl)c(Cl)c3)ccc21` (configuration not stated), the Ki in test [1] amounted to 0.143 µM; in test [2], 12.7 µM; in test [3] it was 2.51 µM. In addition, the Ratio Ki stood at 89 in test [4] and 18 in test [5].

Regarding `CN(C)CCCC1(c2ccc(F)cc2)OCc2cc(-c3cc(F)cc(F)c3)ccc21` (configuration not stated), the Ki in test [1] is 0.108 µM; in test [2], 2 µM.

For `CN(C)CCC[C@@]1(c2ccc(F)cc2)OCc2cc(C#N)ccc21` [ESCITALOPRAM], in test [6], the IC50 was determined as 1560 µM.

As to `CN(C)CCCC1(c2ccc(F)cc2)OCc2c(-c3ccccc3)cccc21` (configuration not stated), the Ki was determined as 0.00507 µM in test [1], 7.16 µM in test [2] and 0.542 µM in test [3]. Besides, the Ratio Ki in test [4] came out at 1410; in test [5] it was 107.

For `CN(C)CCCC1(c2ccc(F)cc2)OCc2cc(I)ccc21` (configuration not stated), the Ki was 0.00142 µM in test [1] and 1.35 µM in test [3].

For the compound `CN(C)CCCC1(c2ccc(F)cc2)OCc2cc(-c3cccc(C#N)c3)ccc21` (configuration not stated), the inhibition constant (Ki) in test [1] was 0.0067 µM; in test [2], 4.98 µM; in test [3] it was 0.737 µM. Also, the Ratio Ki in test [4] came out at 743; in test [5], 110.

As for `CN(C)CCC[C@]1(c2ccc(F)cc2)OCc2cc(Br)ccc21`, the Ki in test [1] was 0.0236 µM; in test [2], 21.6 µM; in test [3], 1.35 µM. Moreover, the Ratio Ki in test [4] is 915; in test [5], 57. Further, the IC50 in test [6] was 420 µM.

`CN(C)CCCC1(c2ccc(F)cc2)OCc2c(-c3cccc(F)c3)cccc21` (configuration not stated): the Ki amounted to 0.00822 µM in test [1], 7.67 µM in test [2] and 0.49 µM in test [3]. The Ratio Ki was 933 in test [4] and 60 in test [5].

With `CN(C)CCCC1(c2ccc(F)cc2)OCc2cc(-c3cccc(Cl)c3)ccc21` (configuration not stated), the Ki in test [1] turned out to be 0.0612 µM; in test [2], 5.71 µM; in test [3], 1.39 µM. Besides, the Ratio Ki was 93 in test [4] and 23 in test [5].

For `CN(C)CCC[C@@]1(c2ccc(F)cc2)OCc2cc(Br)ccc21`, the Ki worked out at 0.00092 µM in test [1], 8.41 µM in test [2] and 2.25 µM in test [3]. Besides, the Ratio Ki amounted to 9140 in test [4] and 2450 in test [5]. In test [6], this compound showed an IC50 of 400 µM.

In the case of `CN(C)CCCC1(c2ccc(F)cc2)OCc2cc(-c3cccc(F)c3)ccc21` (configuration not stated), the Ki in test [1] was 0.0218 µM; in test [2], 4.2 µM.

As to `CN(C)CCCC1(c2ccc(F)cc2)OCc2cc(-c3cccc(N)c3)ccc21` (configuration not stated), the Ki in test [1] is 0.0104 µM; in test [3], 1.69 µM.

As to `CN(C)CCCC1(c2ccc(F)cc2)OCc2cc(Br)ccc21` (racemic), the Ki in test [1] came to 0.00104 µM; in test [2] it was 28.4 µM.

Turning to `CN(C)CCC[C@]1(c2ccc(F)cc2)OCc2cc(/C=C/c3ccccc3)ccc21`, the results for the Ki in test [1], in test [2] and in test [3] were 0.113 µM, 5.19 µM and 0.541 µM, respectively. The Ratio Ki came to 46 in test [4] and 4.79 in test [5].

Regarding `CN(C)CCCC1(c2ccc(F)cc2)OCc2cc(-c3ccccc3)ccc21` (configuration not stated), the Ki is 0.04 µM in test [1], 16.9 µM in test [2] and 1.8 µM in test [3]. Further, the Ratio Ki was 423 in test [4] and 45 in test [5].

Regarding `CN(C)CCC[C@@]1(c2ccc(F)cc2)OCc2cc(/C=C/c3ccccc3)ccc21`, the figures for the Ki in test [1], in test [2] and in test [3] were 0.0106 µM, 16.8 µM and 1.81 µM, respectively. Further, the Ratio Ki in test [4] came out at 1590; in test [5], 171.
